Source: patent publication US20230029496A1, “AMINO ACID ALTERNATIVE CURING SYSTEM” (THE TEXAS A&M UNIVERSITY SYSTEM, priority 2019, published 2023)
Where two headings read alike, the source gives them in different places. Marks after values point to notes of the source that are not given here.

Legend:
NOS system [1] = assay: NO-heme, total heme, nitrosylation and cured color in test tube pork loin sausages (Example 11)
From the text: (§1) Pork loins from a local meat distributor were procured on Mar. 18, 2019 and tested four weeks later on Apr. 18, 2019. A total of nine pounds of pork loins were split into thirds and ground through kidney, ½″, and ¼″ plates to make a restructured ham sausages formulated (Table 14) to contain either 1000 or 5000 ppm L-arginine which were stuffed in 2″ plastic casings and thermally processed. Three pounds of each grind size (9 pound batch) were mixed with high (5000 ppm), low (1000 ppm), or control (0 ppm) concentrations of brine at 25% addition using a Kitchen aid mixer. It was decided to lower the concentration of the L-arginine from 1500 ppm (Test 3) to 1000 ppm (Test 4) to verify that this concentration can generate acceptable levels of NO to develop cured color and residual nitrite for antioxidant and antimicrobial properties. Control and treatment met batches were stuffed in plastic casings in triplicate for each high, low, and control concentrations in one pound portions. […] The samples were tested for residual nitrite and nitroso-hemochromagen pigment (Table 14) one day after thermal processing cooking (April 19th to April 20th), then eight days after thermal processing on April 26th to determine any cure color fading and residual nitrite.

[2] = test system: Nitric Oxide Synthase (NOS) system; assay: Residual nitrite in plastic casing test tube ground pork loin sausages (Example 10); settings: for Nitrite Pellet / Nitrite Supernatant: cooked
Protocol: The desired cured color could not initially be generated in a variety of processed meat products in a pilot plant setting. […] Pork loins (N=2) procured from a local meat distributor (Mar. 18, 2019) were used. Eight pounds of pork loins were ground (½″ then ¼″ plate) and weighed out in one pound portions. Plastic waterproof casings (2″ diameter) were clipped at one end. One pound of ground pork loin was placed in the casing and two pounds of brine (L-arginine concentration 7498 ppm) were added and the open end of the casing clipped. Based on laboratory test tube studies, meat samples would absorb 20-25% of the solution which equates to absorption of approximately 1500 ppm of L-arginine. Each plastic casing contained the same proportion of meat and brine as conducted during previous laboratory experiments (Table 12). A control was manufactured by substituting distilled water for the L-arginine brine.
After thermal processing the plastic casing test tubes were cut open and emptied into beakers, then separated into residue (meat particles) and supernatant (liquid) via paper filtration into 50 mL conical tubes for collection and subsequent analysis for residual nitrite (supernatant) and cured pigment formation/nitrosylation (meat residue).
Nitrosylation and residual nitrite analyses was performed under reduced light to avoid loss of pigmentation. L-arginine treated test tube pork sausage averaged 53.12 to 72.30 ppm of residual nitrite in the cooked meat pellet with percent nitrosylation ranging from 33 to 60 percent (Table 13). The brine was formulated to deliver 1500 ppm ingoing L-arginine at 25% absorption into the meat after two hours of immersion in the brine solution.

NOS system [3] = assay: Residual nitrite in test tube pork loin sausages (Example 11)
From the text: as §1

[4] = High (5000 ppm) L-arginine, one day after thermal processing
[5] = Low (1000 ppm) L-arginine, 8 days post thermal processing
[6] = Low (1000 ppm) L-arginine, one day after thermal processing

`N=C(N)NCCC[C@H](N)C(=O)O` [L-arginine] gave a pH (L-arginine 3000 PPM, Day 1) of 5.91, a pH (L-arginine 3000 PPM, Day 7) of 5.86 and a pH (L-arginine 3000 PPM, Day 14) of 6.02. For the same compound, the pH (L-arginine 3000 PPM, Day 28) was 6.06, the pH (L-arginine 4000 PPM, Day 1) was 5.92 and the pH (L-arginine 4000 PPM, Day 7) was 5.90. For the same compound, the pH (L-arginine 4000 PPM, Day 14) was 5.96, the pH (L-arginine 4000 PPM, Day 28) was 6.00 and the pH (L-arginine 5000 PPM, Day 1) was 5.87. For the same compound, the pH (L-arginine 5000 PPM, Day 7) was 5.92, the pH (L-arginine 5000 PPM, Day 14) was 5.94 and the pH (L-arginine 5000 PPM, Day 28) was 6.01. For the same compound, the “Total Heme” value (NOS system [1]; [4]) was 22.21^a ppm, the NO-Heme (NOS system [1]; [5]) was 12.95^a ppm and the Nitrosylation (NOS system [1]; [5]) was 45.28^a %. The NO-Heme (NOS system [1]; [6]) was 8.21^a ppm, the “Total Heme” value (NOS system [1]; [6]) was 22.21^a ppm and the nitrosylation percentage (NOS system [1]; from the low to high concentrations, one day after thermal processing) was 37 to 60%. For the same compound, the “cured color (FIG. 8)” value (NOS system [1]; high concentration (5000 ppm) L-arginine) was “pink cured color formation”, the “cured color (FIG. 8)” value (NOS system [1]; low concentration (1000 ppm) L-arginine) was “slight cured color” and the “Nitrite Pellet” value ([2]; 10% L-arginine brine (formulated for 1500 ppm L-arginine)) was 72.31^a ppm. The “Nitrite Supernatant” value ([2]; 10% L-arginine brine) was 33.48^a ppm, the “Nitrite Pellet” value ([2]; 15% L-arginine brine (formulated for 1500 ppm L-arginine)) was 53.12^ab ppm and the “Nitrite Supernatant” value ([2]; 15% L-arginine brine) was 36.50^a ppm. For the same compound, the “Nitrite Pellet” value ([2]; 20% L-arginine brine (formulated for 1500 ppm L-arginine)) was 59.52^ab ppm, the “Nitrite Supernatant” value ([2]; 20% L-arginine brine) was 40.80^a ppm and the “Nitrite Pellet” value ([2]; 25% L-arginine brine (formulated for 1500 ppm L-arginine)) was 59.63^ab ppm. For the same compound, the “Nitrite Supernatant” value ([2]; 25% L-arginine brine) was 35.34^a ppm, the “residual nitrite in the cooked meat pellet” value ([2]; range of averages over brine additions 10-25%) was 53.12 to 72.30 ppm and the Nitrite (NOS system [3]; High (5000 ppm) L-arginine, 8 days post thermal processing, refrigerated vacuum packaged) was 48.12^a ppm. The Nitrite (NOS system [3]; [4]) was 66.73^a ppm, the Nitrite (NOS system [3]; Low (1000 ppm) L-arginine, 8 days post thermal processing, refrigerated vacuum packaged) was 37.78^a ppm and the Nitrite (NOS system [3]; [6]) was 79.16^a ppm. For the same compound, the residual nitrite decrease (NOS system [3]; during 8 days of refrigerated vacuum packaged storage) was 20-30 ppm.
